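The concentration for 50% growth inhibition is given as GI50. TGI denotes the concentration required for complete inhibition of growth.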
Tests used:
Experiment in all cases: NCI-60 cell line screen, 384-well format
LOX IMVI melanoma = tested on: LOX IMVI melanoma
OVCAR-5 ovarian = tested on: OVCAR-5 ovarian
SNB-75 CNS = tested on: SNB-75 CNS
NCI/ADR-RES ovarian = tested on: NCI/ADR-RES ovarian
U251 glioblastoma = tested on: U251 glioblastoma
SN12C renal = tested on: SN12C renal
MOLT-4 leukemia = tested on: MOLT-4 leukemia
MCF7 breast = tested on: MCF7 breast
SF-295 CNS = tested on: SF-295 CNS
MDA-MB-435 melanoma = tested on: MDA-MB-435 melanoma
DU-145 prostate = tested on: DU-145 prostate
SK-MEL-5 melanoma = tested on: SK-MEL-5 melanoma
HCT-15 colon = tested on: HCT-15 colon
786-0 renal = tested on: 786-0 renal
SR leukemia = tested on: SR leukemia
OVCAR-8 ovarian = tested on: OVCAR-8 ovarian
PC-3 prostate = tested on: PC-3 prostate
UACC-62 melanoma = tested on: UACC-62 melanoma
EKVX NSCLC = tested on: EKVX NSCLC
HS 578T breast = tested on: HS 578T breast
MDA-MB-231 breast = tested on: MDA-MB-231 breast
SK-MEL-2 melanoma = tested on: SK-MEL-2 melanoma
NCI-H322M lung = tested on: NCI-H322M lung
NCI-H226 lung = tested on: NCI-H226 lung
BT-549 breast = tested on: BT-549 breast
RXF 393 renal = tested on: RXF 393 renal
OVCAR-3 ovarian = tested on: OVCAR-3 ovarian
KM12 colon = tested on: KM12 colon
NCI-H23 lung = tested on: NCI-H23 lung
IGROV1 ovarian = tested on: IGROV1 ovarian
A498 renal = tested on: A498 renal
UO-31 renal = tested on: UO-31 renal
OVCAR-4 ovarian = tested on: OVCAR-4 ovarian
ACHN renal = tested on: ACHN renal
NCI-H522 lung = tested on: NCI-H522 lung
HT29 colon = tested on: HT29 colon
CCRF-CEM leukemia = tested on: CCRF-CEM leukemia
NCI-H460 NSCLC = tested on: NCI-H460 NSCLC
HCC-2998 colon = tested on: HCC-2998 colon
HOP-92 NSCLC = tested on: HOP-92 NSCLC
K-562 leukemia = tested on: K-562 leukemia
SK-MEL-28 melanoma = tested on: SK-MEL-28 melanoma
SW-620 colon = tested on: SW-620 colon
SF-268 CNS = tested on: SF-268 CNS
T-47D breast = tested on: T-47D breast
MDA-MB-468 breast = tested on: MDA-MB-468 breast
UACC-257 melanoma = tested on: UACC-257 melanoma
M14 melanoma = tested on: M14 melanoma
HL-60(TB) leukemia = tested on: HL-60(TB) leukemia
RPMI-8226 leukemia = tested on: RPMI-8226 leukemia
COLO 205 colon = tested on: COLO 205 colon
MALME-3M melanoma = tested on: MALME-3M melanoma
CAKI-1 renal = tested on: CAKI-1 renal
SK-OV-3 ovarian = tested on: SK-OV-3 ovarian
SNB-19 CNS = tested on: SNB-19 CNS
HOP-62 NSCLC = tested on: HOP-62 NSCLC
SF-539 CNS = tested on: SF-539 CNS

In the case of `COc1ccc(F)cc1-c1ccnc2[nH]c(C3=CCN(C4CCC(CC(=O)O)CC4)CC3)cc12` (centres undefined), the GI50 (LOX IMVI melanoma) is reported as 0.0336 µM, the TGI (LOX IMVI melanoma) is reported as 0.141 µM and the GI50 (OVCAR-5 ovarian) is reported as 0.115 µM. The TGI (OVCAR-5 ovarian) was 31.6 µM, the GI50 (SNB-75 CNS) was 0.0483 µM and the TGI (SNB-75 CNS) was 0.172 µM. For the same compound, the GI50 (NCI/ADR-RES ovarian) was 1.22 µM, the TGI (NCI/ADR-RES ovarian) was 4.59 µM and the GI50 (U251 glioblastoma) was 0.142 µM. The TGI (U251 glioblastoma) was 0.49 µM, the GI50 (SN12C renal) was 0.0597 µM and the TGI (SN12C renal) was 0.282 µM. The GI50 (MOLT-4 leukemia) was 0.0366 µM, the TGI (MOLT-4 leukemia) was 0.121 µM and the GI50 (MCF7 breast) was 0.0311 µM. For the same compound, the TGI (MCF7 breast) was 12 µM, the GI50 (SF-295 CNS) was 0.171 µM and the TGI (SF-295 CNS) was 0.456 µM. It also gave a GI50 (MDA-MB-435 melanoma) of 0.13 µM, a TGI (MDA-MB-435 melanoma) of 0.411 µM and a GI50 (DU-145 prostate) of 0.115 µM. It also gave a TGI (DU-145 prostate) of 1.82 µM, a GI50 (SK-MEL-5 melanoma) of 0.0487 µM and a TGI (SK-MEL-5 melanoma) of 0.156 µM. The GI50 (HCT-15 colon) was 0.0637 µM, the TGI (HCT-15 colon) was 2.32 µM and the GI50 ([…]-0 renal) was 0.0824 µM. It also gave a TGI (786-0 renal) of 0.266 µM, a TGI (SR leukemia) of under 0.0141 µM and a GI50 (OVCAR-8 ovarian) of 0.0546 µM. It also gave a TGI (OVCAR-8 ovarian) of 0.238 µM, a GI50 (PC-3 prostate) of 0.124 µM and a TGI (PC-3 prostate) of 0.52 µM. For the same compound, the GI50 (UACC-62 melanoma) was under 0.0164 µM, the TGI (UACC-62 melanoma) was 0.0875 µM and the GI50 (EKVX NSCLC) was 0.15 µM. For the same compound, the TGI (EKVX NSCLC) was 0.437 µM, the GI50 (HS 578T breast) was 0.019 µM and the TGI (HS 578T breast) was 0.0557 µM. For the same compound, the GI50 (MDA-MB-231 breast) was 0.0701 µM, the TGI (MDA-MB-231 breast) was 0.362 µM and the GI50 (SK-MEL-2 melanoma) was 0.0493 µM. The TGI (SK-MEL-2 melanoma) was 0.176 µM, the GI50 (NCI-H322M lung) was 0.113 µM and the TGI (NCI-H322M lung) was 0.367 µM. It also gave a GI50 (NCI-H226 lung) of 0.116 µM, a TGI (NCI-H226 lung) of 0.451 µM and a GI50 (BT-549 breast) of 0.0534 µM. For the same compound, the TGI (BT-549 breast) was 0.145 µM, the GI50 (RXF 393 renal) was 0.0183 µM and the TGI (RXF 393 renal) was 0.0537 µM. For the same compound, the GI50 (OVCAR-3 ovarian) was 0.0334 µM, the TGI (OVCAR-3 ovarian) was 0.183 µM and the GI50 (KM12 colon) was 0.0289 µM. The TGI (KM12 colon) was 0.24 µM, the GI50 (NCI-H23 lung) was 0.0495 µM and the TGI (NCI-H23 lung) was 0.195 µM. It also gave a GI50 (IGROV1 ovarian) of 0.0771 µM, a TGI (IGROV1 ovarian) of over 100 µM and a GI50 (A498 renal) of 0.0864 µM. For the same compound, the GI50 (UO-31 renal) was 0.102 µM, the TGI (UO-31 renal) was 0.691 µM and the GI50 (OVCAR-4 ovarian) was 0.158 µM. For the same compound, the TGI (OVCAR-4 ovarian) was 0.492 µM, the GI50 (ACHN renal) was 0.156 µM and the GI50 (NCI-H522 lung) was 0.131 µM. It also gave a TGI (NCI-H522 lung) of 0.306 µM, a GI50 (HT29 colon) of 0.184 µM and a TGI (HT29 colon) of 0.606 µM. For the same compound, the GI50 (CCRF-CEM leukemia) was 0.0218 µM, the TGI (CCRF-CEM leukemia) was 0.0578 µM and the GI50 (NCI-H460 NSCLC) was 0.0634 µM. For the same compound, the TGI (NCI-H460 NSCLC) was 0.183 µM, the GI50 (HCC-2998 colon) was 0.11 µM and the TGI (HCC-2998 colon) was 0.432 µM. For the same compound, the GI50 (HOP-92 NSCLC) was 0.0941 µM, the GI50 (K-562 leukemia) was 0.136 µM and the TGI (K-562 leukemia) was 0.521 µM. For the same compound, the GI50 (SK-MEL-28 melanoma) was 0.0391 µM, the TGI (SK-MEL-28 melanoma) was 0.202 µM and the GI50 (SW-620 colon) was 0.0623 µM. It also gave a TGI (SW-620 colon) of 0.588 µM, a GI50 (SF-268 CNS) of 0.0223 µM and a TGI (SF-268 CNS) of 0.0844 µM. The GI50 (T-47D breast) was 0.072 µM, the GI50 (MDA-MB-468 breast) was 0.0341 µM and the TGI (MDA-MB-468 breast) was 0.118 µM. The GI50 (UACC-257 melanoma) was 0.138 µM, the TGI (UACC-257 melanoma) was 0.288 µM and the GI50 (M14 melanoma) was 0.0872 µM. It also gave a TGI (M14 melanoma) of 0.304 µM, a GI50 (HL-60(TB) leukemia) of 0.0151 µM and a TGI (HL-60(TB) leukemia) of 0.0325 µM. The GI50 (RPMI-8226 leukemia) was 0.0422 µM, the TGI (RPMI-8226 leukemia) was 0.138 µM and the GI50 (COLO 205 colon) was 0.0336 µM. It also gave a TGI (COLO 205 colon) of 0.188 µM, a GI50 (MALME-3M melanoma) of 0.063 µM and a TGI (MALME-3M melanoma) of 0.197 µM. The GI50 (CAKI-1 renal) was 0.111 µM, the TGI (CAKI-1 renal) was 0.465 µM and the GI50 (SK-OV-3 ovarian) was 0.398 µM. For the same compound, the TGI (SK-OV-3 ovarian) was over 25.9 µM, the GI50 (SNB-19 CNS) was 0.0787 µM and the TGI (SNB-19 CNS) was over 68.3 µM. For the same compound, the GI50 (HOP-62 NSCLC) was 0.0524 µM, the TGI (HOP-62 NSCLC) was 0.194 µM and the GI50 (SF-539 CNS) was 0.104 µM. The TGI (SF-539 CNS) was 0.277 µM.

Reference: PubChem BioAssay (NCI)
